Some test systems named below: ACHN renal; HOP-92 NSCLC; HT29 colon; IGROV1 ovarian; NCI-H23 lung; NCI-H460 lung; NCI-H522 lung; OVCAR-5 ovarian; RXF 393 renal; SF-295 CNS; SF-539 CNS; SK-MEL-28 melanoma; SN12C renal; T-47D breast; U251 CNS; UACC-257 melanoma; UO-31 renal; CCRF-CEM leukemia; HL-60(TB) leukemia.
Common to all, as to test: NCI tumour cell line growth inhibition, 48 h

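1) Cells in 96-well plates. 2) Compound, 48 h, 5 concentrations. 3) Linear interpolation between surrounding doses. 4) Unreached endpoint = highest concentration. TGI: total growth inhibition.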 A value given as a limit tells only on which side of the number the result lay.

For `CCOC(=O)CSc1nc2ccccc2c(=O)n1N`, the TGI in the assay with ACHN renal, in the assay with HOP-92 NSCLC, with HT29 colon, in the assay on IGROV1 ovarian, in the assay on NCI-H23 lung and in the assay on NCI-H460 lung was over 100 µM in each case. In addition, the TGI in the assay on NCI-H522 lung, in the assay on OVCAR-5 ovarian, in the assay with RXF 393 renal, in the assay on SF-295 CNS, with SF-539 CNS and in the assay on SK-MEL-28 melanoma was over 100 µM throughout. Moreover, the TGI with SN12C renal, with T-47D breast, with U251 CNS, with UACC-257 melanoma and with UO-31 renal was over 100 µM in each case.
Turning to `CN(CCc1ccc(Br)cc1)CCN1CCCCC1`, the TGI was over 100 µM in the assay on ACHN renal; 36.6 µM with CCRF-CEM leukemia; 82.8 µM in the assay on HOP-92 NSCLC; 38.8 µM in the assay on HT29 colon; over 100 µM with IGROV1 ovarian; over 100 µM with NCI-H23 lung. Further, the TGI in the assay on NCI-H460 lung was over 100 µM; in the assay on NCI-H522 lung it was 51.7 µM; in the assay with OVCAR-5 ovarian, over 100 µM; with RXF 393 renal it was over 100 µM; in the assay on SF-295 CNS, 61.4 µM; in the assay on SF-539 CNS, 64.8 µM. For the same compound, the TGI in the assay with SK-MEL-28 melanoma is 52.1 µM; with SN12C renal it was over 100 µM; in the assay on T-47D breast it was over 100 µM; with U251 CNS it was over 100 µM; with UACC-257 melanoma it was over 100 µM; in the assay with UO-31 renal, over 100 µM.
For the compound `COC(=O)c1cc(C)ccc1/C=C1\Cc2cc(C)c(C)cc2C1=O`, the TGI with ACHN renal, in the assay on HL-60(TB) leukemia, in the assay on HOP-92 NSCLC, in the assay with HT29 colon, in the assay with IGROV1 ovarian and with NCI-H23 lung was over 100 µM each time. The TGI in the assay on NCI-H460 lung, in the assay with NCI-H522 lung, with OVCAR-5 ovarian, in the assay with RXF 393 renal, in the assay on SF-295 CNS and in the assay on SF-539 CNS was over 100 µM throughout. The TGI with SK-MEL-28 melanoma, with SN12C renal, with T-47D breast, in the assay on UACC-257 melanoma and with UO-31 renal was over 100 µM each time.
Regarding `COC(=O)[C@H](CCSC)NC(=O)c1ccc(CNC(=O)/C=C/c2cccc(Oc3ccccc3)c2)cc1`, the TGI was over 100 µM with ACHN renal; over 100 µM in the assay with CCRF-CEM leukemia; 28.1 µM in the assay on HOP-92 NSCLC; over 100 µM in the assay on HT29 colon; over 73.2 µM in the assay on IGROV1 ovarian; over 92.1 µM in the assay with NCI-H23 lung. Further, the TGI was over 100 µM in the assay on NCI-H460 lung; over 100 µM in the assay on NCI-H522 lung; over 100 µM in the assay with OVCAR-5 ovarian; 55.4 µM in the assay with RXF 393 renal; over 100 µM in the assay on SF-295 CNS; over 100 µM in the assay on SF-539 CNS. Further, the TGI with SK-MEL-28 melanoma is 34.2 µM; with SN12C renal it was over 100 µM; in the assay with T-47D breast, 27 µM; in the assay on U251 CNS, over 100 µM; with UACC-257 melanoma, 26.9 µM; in the assay on UO-31 renal, over 100 µM.
For the compound `COC(=O)c1cc(NC2OCC(OC(C)=O)C(OC(C)=O)C2OC(C)=O)nc(SC)c1C(=O)OC` (centres undefined), the TGI in the assay with ACHN renal, in the assay on CCRF-CEM leukemia, in the assay with HL-60(TB) leukemia, in the assay with HOP-92 NSCLC, in the assay with HT29 colon and with IGROV1 ovarian was over 100 µM throughout. Also, the TGI with NCI-H23 lung, in the assay with NCI-H460 lung, in the assay with NCI-H522 lung, with OVCAR-5 ovarian, in the assay with SF-295 CNS and with SF-539 CNS was over 100 µM each time. Moreover, the TGI in the assay on SK-MEL-28 melanoma, in the assay on SN12C renal, in the assay on T-47D breast, with U251 CNS, in the assay on UACC-257 melanoma and in the assay with UO-31 renal was over 100 µM throughout.
For `NC(=O)/N=C(\N)NC(=O)c1ccccc1`, the TGI in the assay on ACHN renal, with HL-60(TB) leukemia, in the assay on HOP-92 NSCLC, in the assay on HT29 colon, with IGROV1 ovarian and in the assay on NCI-H23 lung was over 100 µM in each case. Also, the TGI in the assay with NCI-H460 lung, in the assay with NCI-H522 lung, in the assay with OVCAR-5 ovarian, with RXF 393 renal, in the assay with SF-295 CNS and in the assay with SK-MEL-28 melanoma was over 100 µM in each case. The TGI with SN12C renal, in the assay on T-47D breast, in the assay with U251 CNS, in the assay with UACC-257 melanoma and with UO-31 renal was over 100 µM each time.
Take `COc1ccc(C)c2c1N[C@](C)([C@]1(C)Nc3c(OC)ccc(C)c3C1=O)C2=O`: the TGI with ACHN renal, in the assay on CCRF-CEM leukemia, in the assay on HOP-92 NSCLC, in the assay on HT29 colon, in the assay with IGROV1 ovarian and in the assay on NCI-H23 lung was over 100 µM throughout. Besides, the TGI with NCI-H460 lung, with NCI-H522 lung, in the assay on OVCAR-5 ovarian, in the assay with RXF 393 renal, in the assay with SF-295 CNS and in the assay on SF-539 CNS was over 100 µM each time. Further, the TGI in the assay with SK-MEL-28 melanoma, in the assay on SN12C renal, in the assay on T-47D breast, in the assay with U251 CNS, in the assay on UACC-257 melanoma and in the assay with UO-31 renal was over 100 µM throughout.
For the compound `CC1=CC(C)C(C)N(CCNC(=O)Nc2ccccc2)c2ccccc21` (centres undefined), the TGI in the assay with ACHN renal is 63.7 µM; in the assay with CCRF-CEM leukemia, 62.8 µM; in the assay with HT29 colon, 32.1 µM; in the assay on IGROV1 ovarian, over 100 µM; with NCI-H23 lung it was 49.1 µM; with NCI-H460 lung it was 74.4 µM. Also, the TGI is 40.2 µM in the assay with NCI-H522 lung; 92.6 µM in the assay on OVCAR-5 ovarian; 40.3 µM in the assay with RXF 393 renal; 40.6 µM with SF-295 CNS; 68.3 µM in the assay with SF-539 CNS; over 100 µM in the assay on SK-MEL-28 melanoma. Moreover, the TGI is over 100 µM in the assay with SN12C renal, 61.2 µM with T-47D breast, 42.7 µM in the assay on UACC-257 melanoma and 98.6 µM with UO-31 renal.
